Molecules are shown by their SMILES.

T1 sequence (P32245 whole entry): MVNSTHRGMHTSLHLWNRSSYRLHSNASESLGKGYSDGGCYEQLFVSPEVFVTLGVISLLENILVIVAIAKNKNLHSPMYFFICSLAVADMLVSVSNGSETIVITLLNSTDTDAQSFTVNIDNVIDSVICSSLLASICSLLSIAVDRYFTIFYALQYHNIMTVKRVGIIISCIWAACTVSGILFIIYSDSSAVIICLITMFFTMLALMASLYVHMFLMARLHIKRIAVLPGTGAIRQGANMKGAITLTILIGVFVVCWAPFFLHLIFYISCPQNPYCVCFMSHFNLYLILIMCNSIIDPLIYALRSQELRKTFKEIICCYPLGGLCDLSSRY

This assay has as its target T1, wild-type human melanocortin 4 receptor (WT-hMC4R) (Homo sapiens, UniProt P32245).
T1 construct: expressed in transfected cells; cDNA from UMR cDNA resource center
Nature of the assay: Cyclic AMP assay (HTRF), antagonist competition against NDP-α-MSH. It is filed as cell-based. The settings on record: HEK293T cells expressing double-tagged WT-hMC4R; cAMP accumulation; 1 hour compound then 4 nM NDP-α-MSH 30 min. The protocol: Intracellular cyclic 3′-5′ adenosine monophosphate (cAMP) accumulation was measured using a competitive immunoassay based on HTRF (Homogeneous Time-Resolved Fluorescence) technology (cAMP dynamic-2, Cis-Bio).
HEK293T stable cell line expressing double-tagged WT-hMC4R construct were collected and washed in cAMP buffer (1XD-PBS pH 7.4, 0.1% glucose). 40,000 cells/well were then dispensed in 96-well plates in cAMP buffer [1XD-PBS, 1% BSA, 0.1% Glucose, 0.75 mM 3-isobutyl-1methyl-xanthine (IBMX, Sigma)] and incubated either for antagonist competition assay: 1 hour at 37° C. with various concentrations of compound [0.01 nM-10 μM] followed by 30 min incubation at 37° C. with 4 nM of NDP-α-MSH (Sigma) or for agonist assay: 1 hour at 37° C. with various concentrations of compound [0.01 nM-10 μM]. 10,000 cells were transferred in 384-well plates, lysed and incubated with cAMP labeled with the dye d2 and anti-cAMP M-Antibody labeled with Cryptate following the manufacturer's protocol.
Reading of HTRF signal was performed on Artemis TR-FRET plate reader (Cosmo Bio).
All curve fitting was conducted using non-linear regression analyses from PRISM (version 4.0c, GraphPad Inc.) and the determination of Rmax and EC50 or IC50 parameters were obtained from sigmoidal dose-response phase (variable slope) equation.
A cDNA encoding a wild-type human MC4R with a 3 tandem copies of Hemaglutinine (HA) epitote sequence from UMR cDNA resource center was modified using known techniques in the art (e.g., PCR, cloning) to fused in frame at the C-terminal a venus-Yellow Fluorescent Protein (YFP) cDNA.
The resultant cDNA was then subcloned in eukaryotic expression vector, e.g. pcDNA 3.1(+) (Invitrogen).
The double tagged WT-hMC4R was transfected in HEK293T cells with lipofectamine (Invitrogen) following the manufacturer's instructions and permanently transfected clonal cell lines were selected by resistance to the neomycin analog G418.
HEK293T stable cell line expressing wild-type human melanocortin 4 receptor (WT-hMC4R) containing an N-terminal 3xHA epitope tag and an intracellular C-terminal venus-yellow fluorescent protein (v-YFP) were maintained at 37° C. in humidified air containing 5% CO2 in Dulbecoo's modified Eagle's medium (DMEM) supplemented with 10% fetal bovine serum (FBS), 100 U/ml penicillin/streptomycin (DMEM complete/10% FBS). Cells were generally at 70%-80% confluence on the day of assay.
In general terms: TR-FRET usually uses a lanthanide donor and a delayed reading to cut background.
The compound `COc1ccc(Cl)cc1-c1nn2ccc(C(=O)N(CCC(C)C)CCC(C)C)cc2c1C#CCCN1CCCCC1` [Example 97] displayed a half-inhibitory concentration (IC50) of 1000 to 5000 nM.

`CC(C)CCN(CCC(C)C)C(=O)c1ccn2nc(-c3ccc(C(N)=O)cc3)c(CCCN3CCCCC3)c2c1` [Example 95] yielded an IC50 of under 500 nM. Consider `CC(C)CCN(CCC(C)C)C(=O)c1ccn2nc(C(C)(C)C)c(/C=C/CN3CCCCC3)c2c1` [Example 128], for which the IC50 lay in the range of 1000 to 5000 nM. The figure for `CC(C)CCN(CCC(C)C)C(=O)c1ccn2nc(C(=O)Nc3ccc(C(=O)N4CCOCC4)cc3)c(CCCN3CCCCC3)c2c1` [Example 133] is 5000 to 15000 nM; for `CCOc1ccc(-c2nn3ccc(C(=O)N(CCC(C)C)CCC(C)C)cc3c2CCCN2CCC(F)(F)CC2)cc1` [Example 80] it is 5000 to 15000 nM; for `CCCCCN(CCCCC)C(=O)c1ccn2nc(-c3ccc(F)cc3)c(/C=C/CN3CCCCC3)c2c1` [Example 53] it is 1000 to 5000 nM. The figure for `CCCCCN(CCCCC)C(=O)c1ccn2nc(-c3ccc(C)cc3)c(CCCN3CCCCC3)c2c1` [Example 62] is 1000 to 5000 nM.

`Cc1ccc(-c2nn3ccc(C(=O)N(CCC(C)C)CCC(C)C)cc3c2CCCN2CCCCC2)cc1` [Example 61] gave a concentration for half-maximal inhibition (IC50) of under 500 nM.

For `CC(C)CCN(CCC(C)C)C(=O)c1ccn2nc(-c3ccc(F)cc3)c(/C=C/CN3CCCCC3)c2c1` [Example 52], the IC50 lay in the range of 500 to 1000 nM.

The compound `CCCCCN(CCCCC)C(=O)c1ccn2nc(-c3ccccc3)c(/C=C/CN3CCCCC3)c2c1` [Example 59] had a half-inhibitory concentration (IC50) of 1000 to 5000 nM. The figure for `CC(C)CCN(CCC(C)C)C(=O)c1ccn2nc(-c3ccc(Br)cc3)c(/C=C/CN3CCCCC3)c2c1` [Example 41, (E)-2-(4-Bromophenyl)-N,N-diisopentyl-3-(3-(piperidin-1-yl)prop-1-en-1-yl)pyrazolo[1,5-a]pyridine-5-carboxamide] is 1000 to 5000 nM; for `CC(C)CCN(CCC(C)C)C(=O)c1ccn2nc(-c3ccc(-c4noc(C(F)(F)F)n4)cc3)c(CCCN3CCCCC3)c2c1` [Example 136] it is 1000 to 5000 nM. Take `CC(C)CCN(CCC(C)C)C(=O)c1ccn2nc(-c3cccc(C(N)=O)c3)c(/C=C/CN3CCCCC3)c2c1` [Example 77]: the IC50 is under 500 nM. The figure for `COc1ccc(-c2nn3ccc(C(=O)N(CCC(C)C)CCC(C)C)cc3c2CCCN(C)C)cc1` [Example 18] is 5000 to 15000 nM; for `CCCCN(CCCC)C(=O)c1ccn2nc(-c3cc(OC)cc(OC)c3)c(CCCN3CCCCC3)c2c1` [Example 87] it is 1000 to 5000 nM. The figure for `CC(C)CCN(CCC(C)C)C(=O)c1ccn2nc(-c3ccc(C(C)(C)C)cc3)c(/C=C/CN3CCCC3)c2c1` [Example 6] is 1000 to 5000 nM; for `COC(=O)c1ccccc1-c1nn2ccc(C(=O)N(CCC(C)C)CCC(C)C)cc2c1CCCN1CCCCC1` [Example 39] it is 1000 to 5000 nM. The figure for `CC(=O)c1ccc(-c2nn3ccc(C(=O)N(CCC(C)C)CCC(C)C)cc3c2CCCN2CCOCC2)cc1` [Example 121] is 1000 to 5000 nM. In turn, `CC(C)CCN(CCC(C)C)C(=O)c1ccn2nc(-c3cccc(Cl)c3)c(/C=C/CN3CCCCC3)c2c1` [Example 72, (E)-2-(3-chlorophenyl)-N,N-diisopentyl-3-(3-(piperidin-1-yl)prop-1-en-1-yl)pyrazolo[1,5-a]pyridine-5-carboxamide] came in with a half-maximal inhibitory concentration (IC50) of 500 to 1000 nM. The figure for `CC(C)CCN(CCC(C)C)C(=O)c1ccn2nc(-c3ccc(-c4noc(-c5ccccc5)n4)cc3)c(CCCN3CCCCC3)c2c1` [Example 134] is 1000 to 5000 nM; for `CCCCCN(CCCCC)C(=O)c1ccn2nc(-c3ccc(OC)cc3)c(/C=C/CN3CCCCC3)c2c1` [Example 19] it is 1000 to 5000 nM. The figure for `COc1ccc(Cl)cc1-c1nn2ccc(C(=O)N(CCC(C)C)CCC(C)C)cc2c1CCCN1CCCCC1` [Example 114] is 1000 to 5000 nM; for `COC(=O)c1ccccc1-c1nn2ccc(C(=O)N(CCC(C)C)CCC(C)C)cc2c1/C=C/CN1CCCCC1` [Example 36] it is 1000 to 5000 nM. The figure for `CC(C)CCN(CCC(C)C)C(=O)c1ccn2nc(-c3ccc(C(N)=O)cc3)c(/C=C/CN3CCCCC3)c2c1` [Example 91] is 500 to 1000 nM; for `COc1ccc(-c2nn3ccc(C(=O)N(CCC(C)C)CCC(C)C)cc3c2CCCN2CCCCC2)cc1OC` [Example 16] it is under 500 nM.

The compound `CC(C)CCN(CCC(C)C)C(=O)c1ccn2nc(-c3cccc(-c4nnn[nH]4)c3)c(CCCN3CCCCC3)c2c1` [Example 94] displayed a half-inhibitory concentration (IC50) of 500 to 1000 nM. The figure for `COc1ccc(-c2nn3ccc(C(=O)N(CCC(C)C)CCC(C)C)cc3c2CCCNCc2ccccc2)cc1` [Example 155] is 1000 to 5000 nM. For `COc1ccc(-c2nn3ccc(C(=O)N(CCC(C)C)CCC(C)C)cc3c2/C=C/CN2CCOCC2)cc1` [Example 123], the IC50 lay in the range of 1000 to 5000 nM.

In turn, `CC(=O)c1cccc(-c2nn3ccc(C(=O)N(CCC(C)C)CCC(C)C)cc3c2/C=C/CN2CCCCC2)c1` [Example 29] returned an IC50 of 500 to 1000 nM. The figure for `COc1ccc(-c2nn3ccc(C(=O)N(CCC(C)C)CCC(C)C)cc3c2CCCN2CCC(C)CC2)cc1` [Example 146] is 1000 to 5000 nM; for `CCCNCCCc1c(-c2ccc(OC)cc2)nn2ccc(C(=O)N(CCC(C)C)CCC(C)C)cc12` [Example 163] it is 1000 to 5000 nM. The figure for `COc1ccc(-c2nn3ccc(C(=O)N(CCC4CC4)CCC4CC4)cc3c2CCCN2CCCCC2)cc1` [Example 130] is 500 to 1000 nM; for `CCCCN(CCC)C(=O)c1ccn2nc(-c3ccc(OC)cc3)c(/C=C/CN3CCCCC3)c2c1` [Example 25] it is 1000 to 5000 nM. The figure for `CC(C)CCN(CCC(C)C)C(=O)c1ccn2nc(-c3ccc(C(C)O)cc3)c(CCCN3CCOCC3)c2c1` (centres unmarked) [Example 118] is 1000 to 5000 nM; for `COc1ccc(-c2nn3ccc(C(=O)N(CCC(C)C)CCC(C)C)cc3c2CCCN(C)C2CCNCC2)cc1` [Example 129] it is 500 to 1000 nM; for `CCCCN(CCCC)C(=O)c1ccn2nc(-c3ccc(C(C)(C)C)cc3)c(CCCN3CCCC3)c2c1` [Example 9] it is 5000 to 15000 nM. In turn, `CC(C)CCN(CCC(C)C)C(=O)c1ccn2nc(C(=O)N3CCOCC3)c(/C=C/CN3CCCCC3)c2c1` [Example 167] gave a half-inhibitory concentration (IC50) of 5000 to 15000 nM. The figure for `CC(=O)c1ccc(-c2nn3ccc(C(=O)N(CCC(C)C)CCC(C)C)cc3c2CCCN2CCCCC2)cc1` [Example 47, 2-(4-Acetylphenyl)-N,N-diisopentyl-3-(3-(piperidin-1-yl)propyl)pyrazolo[1,5-a]pyridine-5-carboxamide] is 500 to 1000 nM; for `COc1ccc(Cl)cc1-c1nn2ccc(C(=O)N(CCC(C)C)CCC(C)C)cc2c1C#CCN1CCCCC1` [Example 101] it is under 500 nM. The figure for `COc1ccc(-c2nn3ccc(C(=O)N(CCC(C)C)CCC(C)C)cc3c2CCCN2CCCCC2C)cc1` (centres unmarked) [Example 168] is 500 to 1000 nM. The figure for `CC(C)CCN(CCC(C)C)C(=O)c1ccn2nc(-c3ccc(-c4nnn[nH]4)cc3)c(CCCN3CCCCC3)c2c1` [Example 98] is 1000 to 5000 nM; for `CC(C)CCN(CCC(C)C)C(=O)c1ccn2nc(-c3ccc(C(=N)N)cc3)c(CCCN3CCCCC3)c2c1` [Example 120] it is under 500 nM. For `COC(=O)c1cccc(-c2nn3ccc(C(=O)N(CCC(C)C)CCC(C)C)cc3c2CCCN2CCCCC2)c1` [Example 31], the IC50 was under 500 nM. The figure for `CC(C)CCN(CCC(C)C)C(=N)c1ccn2nc(-c3ccc(C(N)=O)cc3)c(CCCN3CCCCC3)c2c1` [Example 126] is under 500 nM. The compound `COc1ccc(-c2nn3ccc(C(=O)N(CCC(C)C)CCC(C)C)nc3c2/C=C/CN2CCCC2)cc1` [Example 99] displayed an IC50 of 1000 to 5000 nM.

Turning to `CCCCN(CCCC)C(=O)c1ccn2nc(-c3ccc(OC)cc3)c(/C=C/CN3CCCCC3)c2c1` [Example 12, (E)-N,N-Dibutyl-2-(4-methoxyphenyl)-3-(3-(piperidin-1-yl)prop-1-enyl)pyrazolo[1,5-a]pyridine-5-carboxamide], the IC50 lay in the range of 1000 to 5000 nM.

Compound `COc1ccc(-c2nn3ccc(C(=O)N(CCC(C)C)CCC(C)C)nc3c2CCCN2CCCC2)cc1` [Example 104] returned a 50% inhibitory concentration (IC50) of 5000 to 15000 nM. The figure for `CC(C)CCN(CCC(C)C)C(=O)c1ccn2nc(-c3ccc(Br)cc3)c(/C=C/CN3CCOCC3)c2c1` [Example 93] is 5000 to 15000 nM; for `COc1ccc(-c2nn3ccc(N(CCC(C)C)CCC(C)C)cc3c2CCCN2CCCCC2)cc1` [Example 131] it is 5000 to 15000 nM. The figure for `COc1ccc(-c2nn3ccc(C(=O)N(CCC(C)C)CCC(C)C)cc3c2/C=C/CN2CCCC(F)C2)cc1` (centres unmarked) [Example 158] is 1000 to 5000 nM.

For orientation: IC50 means the concentration at which inhibition is half-maximal. Read a low IC50 as higher potency.
